Reference: the supplement of paper PMC10307832

Experiments:
Experiment in all cases: relative viability (nuclei count vs DMSO), 5 days (fraction); higher = more cells survive
[1] = compound: NC(=O)[C@@H](CCC(F)(F)F)N(Cc1ccc(-c2ncon2)cc1F)S(=O)(=O)c1ccc(Cl)cc1 [Avagacestat] + CS(=O)(=O)CCNCc1ccc(-c2ccc3ncnc(Nc4ccc(OCc5cccc(F)c5)c(Cl)c4)c3c2)o1 [Lapatinib] (partner 2 µM)
Outline: (§1)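 Nuclei were stained with Hoechst during a one-step fixation (final 0.05% Triton X-100, 1% formaldehyde, 1 ug/ml Hoechst) carried out 5 days after dosing, then counted on 4× images. The cells, lung cancer lines in 1536-well plates, had been dosed by pin tool the day after seeding with one drug alone or a fixed anchor-drug dose plus five library-drug doses (not always all listed) in √10 steps. Relative viability is the nuclei count in treated wells divided by that in vehicle wells, and each value is the median of duplicate plates.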

[2] = compound: NC(=O)[C@@H](CCC(F)(F)F)N(Cc1ccc(-c2ncon2)cc1F)S(=O)(=O)c1ccc(Cl)cc1 [Avagacestat] + NC(=O)Nc1cc(-c2cccc(F)c2)sc1C(=O)N[C@H]1CCCNC1 [AZD7762] (partner 0.2 µM)
Outline: as §1

[3] = compound: NC(=O)[C@@H](CCC(F)(F)F)N(Cc1ccc(-c2ncon2)cc1F)S(=O)(=O)c1ccc(Cl)cc1 [Avagacestat] + Nc1ncn([C@H]2C[C@H](O)[C@@H](CO)O2)c(=O)n1 [Decitabine] (partner 2 µM)
Outline: as §1

[4] = compound: NC(=O)[C@@H](CCC(F)(F)F)N(Cc1ccc(-c2ncon2)cc1F)S(=O)(=O)c1ccc(Cl)cc1 [Avagacestat] + O=C(c1cc(Cc2n[nH]c(=O)c3ccccc23)ccc1F)N1CCN(C(=O)C2CC2)CC1 [Olaparib] (partner 8 µM)
Outline: as §1

Cell Line	relative viability ([1]; first compound 0.08 µM)	relative viability ([1]; first compound 0.253 µM)	relative viability ([1]; first compound 0.8 µM)	relative viability ([1]; first compound 2.53 µM)	relative viability ([1]; first compound 8 µM)	relative viability ([2]; first compound 0.08 µM)	relative viability ([2]; first compound 0.253 µM)	relative viability ([2]; first compound 0.8 µM)	relative viability ([2]; first compound 2.53 µM)	relative viability ([2]; first compound 8 µM)	relative viability ([3]; first compound 0.08 µM)	relative viability ([3]; first compound 0.253 µM)	relative viability ([3]; first compound 0.8 µM)	relative viability ([3]; first compound 2.53 µM)	relative viability ([3]; first compound 8 µM)	relative viability ([4]; first compound 0.08 µM)	relative viability ([4]; first compound 0.253 µM)	relative viability ([4]; first compound 0.8 µM)	relative viability ([4]; first compound 2.53 µM)	relative viability ([4]; first compound 8 µM)
NCI-H596	1.09	1.03	1.15	1.11	0.944	1.21	1.14	1.17	0.971	1.05	1.09	1.01	1.28	0.906	0.928	0.741	0.62	0.804	0.613	0.573
NCI-H647	1.42	1.13	1.25	1.09	0.811	0.634	0.484	0.565	0.516	0.292	0.459	0.465	0.42	0.374	0.377	0.766	0.663	0.626	0.508	0.366
NCI-H650	1.2	1.04	1.03	1.1	0.835	1.06	0.963	1.19	1.09	0.822	0.33	0.324	0.317	0.328	0.367	0.399	0.524	0.403	0.427	0.412
NCI-H727	0.939	0.875	1.19	0.876	0.671	0.678	0.651	0.78	0.651	0.784	0.889	0.815	1.06	0.836	0.875	0.735	0.875	0.698	0.745	0.788
NCI-H838	1.5	1.04	1.13	0.865	0.835	0.988	0.971	0.997	0.857	0.861	0.483	0.48	0.466	0.471	0.442	1.08	0.87	0.881	0.805	0.575
NCI-H1355	1.24	1.15	1.1	0.926	0.871	0.98	0.777	0.809	0.654	0.699	0.357	0.329	0.371	0.344	0.309	0.851	0.778	0.73	0.691	0.718
NCI-H1395	0.981	1.08	0.94	1.17	0.79	0.407	0.365	0.369	0.412	0.333	0.719	0.717	0.67	0.692	0.681	0.463	0.475	0.516	0.359	0.435
NCI-H1437	1.07	0.972	0.878	0.69	0.602	1.16	1.15	1.02	1.09	0.906	0.643	0.668	0.654	0.598	0.628	0.804	0.743	0.696	0.667	0.543
NCI-H1651	1.11	1.03	0.883	0.762	0.672	0.531	0.538	0.561	0.441	0.36	0.636	0.665	0.734	0.611	0.607	0.219	0.188	0.179	0.19	0.19
NCI-H1666	0.858	0.877	0.756	0.639	0.523	1	0.88	1	0.93	0.876	0.892	0.858	0.953	0.81	0.882	0.843	0.863	0.808	0.955	0.758
NCI-H1734	1.52	1.26	1.11	1.07	1.07	0.612	0.65	0.641	0.5	0.592	0.608	0.499	0.482	0.482	0.491	0.731	0.747	0.614	0.574	0.633
NCI-H1755	1.05	1.29	1.22	1.04	1.02	0.425	0.672	0.4	0.38	0.473	0.732	0.665	0.755	0.718	0.72	0.894	0.957	0.901	0.914	0.884
NCI-H1792	1.26	0.681	1.76	0.915	0.758	0.726	0.942	0.706	0.65	0.345	0.722	0.561	0.618	0.487	0.426	0.673	0.605	0.563	0.408	0.726
NCI-H1793	1.13	0.648	1.08	0.627	0.769	0.619	0.474	0.373	0.346	0.228	0.504	0.532	0.508	0.472	0.496	1.04	0.601	1.11	0.827	0.616
NCI-H1915	0.965	1.12	1.12	0.988	0.949	0.694	0.72	0.74	0.806	0.678	0.259	0.266	0.283	0.237	0.265	0.264	0.28	0.257	0.249	0.227
NCI-H1944	0.714	0.937	0.77	0.669	0.756	0.455	0.603	0.571	0.454	0.719	0.452	0.475	0.402	0.406	0.428	0.492	0.448	0.46	0.4	0.421
